SMILES strings stand for the structures. pEC50: −log10 of the molar value. Some results are limits rather than exact numbers.

This assay deals with PB2 (Influenza A virus, UniProt P03428). The assay is described as follows: biochemical. In kind it is binding.
Chain of PB2 (P03428 whole entry, looked up): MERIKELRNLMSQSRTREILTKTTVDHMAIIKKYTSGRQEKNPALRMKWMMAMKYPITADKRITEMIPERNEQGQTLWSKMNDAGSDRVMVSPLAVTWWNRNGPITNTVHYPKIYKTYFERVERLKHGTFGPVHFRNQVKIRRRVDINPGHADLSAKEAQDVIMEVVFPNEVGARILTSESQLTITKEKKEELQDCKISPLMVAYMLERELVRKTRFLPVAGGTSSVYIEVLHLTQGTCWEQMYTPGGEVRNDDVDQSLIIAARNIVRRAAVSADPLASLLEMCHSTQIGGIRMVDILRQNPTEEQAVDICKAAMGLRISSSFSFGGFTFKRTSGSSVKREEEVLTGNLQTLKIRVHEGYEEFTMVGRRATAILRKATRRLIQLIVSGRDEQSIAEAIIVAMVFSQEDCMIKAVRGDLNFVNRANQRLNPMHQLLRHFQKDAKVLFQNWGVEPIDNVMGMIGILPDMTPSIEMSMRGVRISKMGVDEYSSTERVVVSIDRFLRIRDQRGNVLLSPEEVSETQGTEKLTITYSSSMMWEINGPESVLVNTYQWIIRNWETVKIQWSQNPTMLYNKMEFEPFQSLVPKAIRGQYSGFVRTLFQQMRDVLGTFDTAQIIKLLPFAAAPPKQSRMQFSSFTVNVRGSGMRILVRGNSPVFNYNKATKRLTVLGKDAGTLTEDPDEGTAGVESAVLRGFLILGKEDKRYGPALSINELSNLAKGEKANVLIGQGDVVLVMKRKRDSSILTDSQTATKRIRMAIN
As for `O=C(N[C@H]1CCC[C@@H](Nc2nc(-c3c[nH]c4ncc(F)cc34)ncc2F)C1)N1CCCc2ccccc21` [Compound A1], the pEC50 is less than 4.00.
As to `O=C(N[C@H]1CCC[C@@H](Nc2nc(-c3c[nH]c4ncc(F)cc34)ncc2F)C1)N1CCc2ccccc2C1` [Compound A2], the pEC50 was less than 4.00.
With `O=C(N[C@H]1CCC[C@@H](Nc2nc(-c3c[nH]c4ncc(F)cc34)ncc2F)C1)N1Cc2ccccc2C1` [Compound A3], the negative logarithm of the EC50 (pEC50) is 4.60 to 5.30.
For `CCOCCOCCCC1CCCN(C(=O)N[C@@H]2CCC[C@H](Nc3nc(-c4c[nH]c5ncc(F)cc45)ncc3F)C2)C1` (some centres unmarked) [Compound A4] the value was 4.00 to 4.30; for `CCOCCOCCCCCN1CC(=O)N([C@@H]2CCC[C@H](Nc3nc(-c4c[nH]c5ncc(F)cc45)ncc3F)C2)C1=O` [Compound A5], less than 4.00; for `CCOCCOCCCC1CCN(C(=O)N[C@@H]2CCC[C@H](Nc3nc(-c4c[nH]c5ncc(F)cc45)ncc3F)C2)C1` (some centres unmarked) [Compound A7], 4.60 to 5.30.
For `CCOc1ccccc1OCCCC1CCCN(C(=O)N[C@H]2CCC[C@@H](Nc3nc(-c4c[nH]c5ncc(F)cc45)ncc3F)C2)C1` (some centres unmarked) [Compound A8] the value was less than 4.00.
For `O=C(N[C@H]1CCC[C@@H](Nc2nc(-c3c[nH]c4ncc(F)cc34)ncc2F)C1)N1CCCC(CCCOCCOCc2ccccc2)C1` (some centres unmarked) [Compound A9], the negative logarithm of the EC50 (pEC50) was less than 4.00.
In turn, `O=C(N[C@H]1CCC[C@@H](Nc2nc(-c3c[nH]c4ncc(F)cc34)ncc2F)C1)N1CCCC(CCCOCCO)C1` (some centres unmarked) [Compound A10] had a pEC50 of 4.60 to 5.30.
The molecule `CCOCCOCCCC1CCN(C(=O)N[C@H]2CCC[C@@H](Nc3nc(-c4c[nH]c5ncc(F)cc45)ncc3F)C2)C1` (some centres unmarked) [Compound A11] showed a pEC50 of 4.60 to 5.30.
For `O=C(N[C@H]1CCC[C@@H](Nc2nc(-c3c[nH]c4ncc(F)cc34)ncc2F)C1)N1CCc2ccccc21` [Compound A14] the value was 4.00 to 4.30.
`CCOCCOCCCc1cncc(C(=O)N[C@H]2CCC[C@@H](Nc3nc(-c4c[nH]c5ncc(F)cc45)ncc3F)C2)c1` [Compound A23]: the negative logarithm of the EC50 (pEC50) was less than 4.00.
For `CCOCCOCCCc1ccnc(C(=O)N[C@H]2CCC[C@@H](Nc3nc(-c4c[nH]c5ncc(F)cc45)ncc3F)C2)c1` [Compound A24] the value was 4.00 to 4.30; for `CCCCCOCCCc1ccnc(C(=O)N[C@@H]2CCC[C@H](Nc3nc(-c4c[nH]c5ncc(F)cc45)ncc3F)C2)c1` [Compound A27], less than 4.00.
For `CCCOCCCCCc1ccnc(C(=O)N[C@@H]2CCC[C@H](Nc3nc(-c4c[nH]c5ncc(F)cc45)ncc3F)C2)c1` [Compound A28] the value was less than 4.00; for `CCOc1ccccc1OCCCc1ccnc(C(=O)N[C@@H]2CCC[C@H](Nc3nc(-c4c[nH]c5ncc(F)cc45)ncc3F)C2)c1` [Compound A29], less than 4.00.
With `CCOCCCCCCc1ccnc(C(=O)N[C@H]2CCC[C@@H](Nc3nc(-c4c[nH]c5ncc(F)cc45)ncc3F)C2)c1` [Compound A30], the pEC50 is less than 4.00.
For `CCCCOCCCCc1ccnc(C(=O)N[C@H]2CCC[C@@H](Nc3nc(-c4c[nH]c5ncc(F)cc45)ncc3F)C2)c1` [Compound A31] the value was less than 4.00; for `CCOCCOCCCc1cc(C(=O)N[C@@H]2CCC[C@H](Nc3nc(-c4c[nH]c5ncc(F)cc45)ncc3F)C2)ncn1` [Compound A33], less than 4.00; for `O=C(N[C@@H]1CCC[C@H](Nc2nc(-c3c[nH]c4ncc(F)cc34)ncc2F)C1)c1cc(CCCOCCOCc2ccccc2)ccn1` [Compound A34], less than 4.00.
The figure for `O=C(N[C@H]1CCC[C@@H](Nc2nc(-c3c[nH]c4ncc(F)cc34)ncc2F)C1)c1ccccn1` [Compound A35] is 4.00 to 4.30; for `O=C(N[C@@H]1CCC[C@H](Nc2nc(-c3c[nH]c4ncc(F)cc34)ncc2F)C1)c1cc(CCCOCCOCc2ccc(F)cc2)ccn1` [Compound A36] it is less than 4.00.
For `O=C(N[C@H]1CCC[C@@H](Nc2nc(-c3c[nH]c4ncc(F)cc34)ncc2F)C1)c1cccnc1` [Compound A37] the value was less than 4.00; for `CCOCCCc1ccnc(C(=O)N[C@@H]2CCC[C@H](Nc3nc(-c4c[nH]c5ncc(F)cc45)ncc3F)C2)c1` [Compound A38], 4.30 to 4.60.
Take `O=C(N[C@@H]1CCC[C@H](Nc2nc(-c3c[nH]c4ncc(F)cc34)ncc2F)C1)c1cc(CCCO)ccn1` [Compound A39]: the pEC50 was more than 5.30.
The figure for `CCC(CC)OCCOCCCc1ccnc(C(=O)N[C@@H]2CCC[C@H](Nc3nc(-c4c[nH]c5ncc(F)cc45)ncc3F)C2)c1` [Compound A40] is less than 4.00; for `CCOCc1ccc(C(=O)N[C@@H]2CCC[C@H](Nc3nc(-c4c[nH]c5ncc(F)cc45)ncc3F)C2)nc1` [Compound A41] it is 4.00 to 4.30; for `CCCCc1ccnc(C(=O)N[C@H]2CCC[C@@H](Nc3nc(-c4c[nH]c5ncc(F)cc45)ncc3F)C2)c1` [Compound A42] it is less than 4.00.
For `CCOCc1ccnc(C(=O)N[C@H]2CCC[C@@H](Nc3nc(-c4c[nH]c5ncc(F)cc45)ncc3F)C2)c1` [Compound A43] the value was 4.60 to 5.30; for `CCOCCc1ccnc(C(=O)N[C@H]2CCC[C@@H](Nc3nc(-c4c[nH]c5ncc(F)cc45)ncc3F)C2)c1` [Compound A44], 4.30 to 4.60; for `COCCOCc1ccnc(C(=O)N[C@@H]2CCC[C@H](Nc3nc(-c4c[nH]c5ncc(F)cc45)ncc3F)C2)c1` [Compound A45], 4.30 to 4.60.
The figure for `O=C(N[C@H]1CCC[C@@H](Nc2nc(-c3c[nH]c4ncc(F)cc34)ncc2F)C1)c1cc2ccccc2cn1` [Compound A46] is less than 4.00.
In turn, `Cc1cccc(C(=O)N[C@H]2CCC[C@@H](Nc3nc(-c4c[nH]c5ncc(F)cc45)ncc3F)C2)n1` [Compound A47] gave a negative logarithm of the EC50 (pEC50) of 4.60 to 5.30.
The figure for `O=C(O)CCc1ccnc(C(=O)N[C@H]2CCC[C@@H](Nc3nc(-c4c[nH]c5ncc(F)cc45)ncc3F)C2)c1` [Compound A49] is more than 5.30; for `O=C(N[C@H]1CCC[C@@H](Nc2nc(-c3c[nH]c4ncc(F)cc34)ncc2F)C1)c1cc(CC(O)CO)ccn1` (some centres unmarked) [Compound A50] it is more than 5.30; for `Cc1cc(C(=O)N[C@H]2CCC[C@@H](Nc3nc(-c4c[nH]c5ncc(F)cc45)ncc3F)C2)ccn1` [Compound A51] it is 4.60 to 5.30.
For `CCOc1cccc(-c2ccnc(C(=O)N[C@H]3CCC[C@@H](Nc4nc(-c5c[nH]c6ncc(F)cc56)ncc4F)C3)c2)c1` [Compound A52] the value was less than 4.00.
Molecule `Cc1ccnc(C(=O)N[C@H]2CCC[C@@H](Nc3nc(-c4c[nH]c5ncc(F)cc45)ncc3F)C2)c1` [Compound A53] had a pEC50 of 4.60 to 5.30.
With `O=C(N[C@H]1CCC[C@@H](Nc2nc(-c3c[nH]c4ncc(F)cc34)ncc2F)C1)c1cc(-c2ccccc2)ccn1` [Compound A54], the pEC50 is 4.60 to 5.30.
For `O=C(N[C@H]1CCC[C@@H](Nc2nc(-c3c[nH]c4ncc(F)cc34)ncc2F)C1)c1cnc2ccccc2c1` [Compound A55] the value was 4.60 to 5.30; for `Cc1ccc(C(=O)N[C@H]2CCC[C@@H](Nc3nc(-c4c[nH]c5ncc(F)cc45)ncc3F)C2)cn1` [Compound A56], more than 5.30.
The figure for `O=C(N[C@H]1CCC[C@@H](Nc2nc(-c3c[nH]c4ncc(F)cc34)ncc2F)C1)c1cncc(F)c1` [Compound A57] is 4.60 to 5.30; for `CCCCc1ccc(C(=O)N[C@@H]2CCC[C@H](Nc3nc(-c4c[nH]c5ncc(F)cc45)ncc3F)C2)nc1` [Compound A58] it is 4.00 to 4.30; for `O=C(N[C@@H]1CCC[C@H](Nc2nc(-c3c[nH]c4ncc(F)cc34)ncc2F)C1)c1cc(CCCOCCOCCO)ccn1` [Compound A59] it is more than 5.30.
For `O=C(N[C@@H]1CCC[C@H](Nc2nc(-c3c[nH]c4ncc(F)cc34)ncc2F)C1)c1cc(-c2ccc(F)cc2)ccn1` [Compound A60] the value was 4.60 to 5.30; for `COCc1cccc(-c2ccnc(C(=O)N[C@@H]3CCC[C@H](Nc4nc(-c5c[nH]c6ncc(F)cc56)ncc4F)C3)c2)c1` [Compound A61], 4.30 to 4.60; for `CCOc1ccc(-c2ccnc(C(=O)N[C@@H]3CCC[C@H](Nc4nc(-c5c[nH]c6ncc(F)cc56)ncc4F)C3)c2)cc1` [Compound A62], 4.60 to 5.30.
For the molecule `O=C(N[C@@H]1CCC[C@H](Nc2nc(-c3c[nH]c4ncc(F)cc34)ncc2F)C1)c1ccc(-c2ccccc2)nc1` [Compound A63], the negative-log EC50 (pEC50) is 4.60 to 5.30.
The figure for `Cc1cncc(C(=O)N[C@@H]2CCC[C@H](Nc3nc(-c4c[nH]c5ncc(F)cc45)ncc3F)C2)c1` [Compound A64] is more than 5.30; for `O=C(N[C@H]1CCC[C@@H](Nc2nc(-c3c[nH]c4ncc(F)cc34)ncc2F)C1)c1cncc2ccccc12` [Compound A65] it is 4.30 to 4.60; for `O=C(N[C@@H]1CCC[C@H](Nc2nc(-c3c[nH]c4ncc(F)cc34)ncc2F)C1)c1cc(Oc2ccccc2)ccn1` [Compound A66] it is less than 4.00.
`O=C(N[C@@H]1CCC[C@H](Nc2nc(-c3c[nH]c4ncc(F)cc34)ncc2F)C1)c1cncc(-c2ccccc2)c1` [Compound A67] had a pEC50 of less than 4.00.
For `CCOc1cccc(-c2cncc(C(=O)N[C@@H]3CCC[C@H](Nc4nc(-c5c[nH]c6ncc(F)cc56)ncc4F)C3)c2)c1` [Compound A68] the value was 4.30 to 4.60; for `CCOCCC(=O)N(CC)Cc1ccnc(C(=O)N[C@@H]2CCC[C@H](Nc3nc(-c4c[nH]c5ncc(F)cc45)ncc3F)C2)c1` [Compound A69], more than 5.30.
For `CCOCc1cccc(COCc2ccnc(C(=O)N[C@H]3CCC[C@@H](Nc4nc(-c5c[nH]c6ncc(F)cc56)ncc4F)C3)c2)c1` [Compound A71], the pEC50 was less than 4.00.
For `CCc1cccc(OCCOCc2ccnc(C(=O)N[C@H]3CCC[C@@H](Nc4nc(-c5c[nH]c6ncc(F)cc56)ncc4F)C3)c2)c1` [Compound A72] the value was 4.30 to 4.60; for `COc1ccc(CNC(=O)OCc2ccnc(C(=O)N[C@H]3CCC[C@@H](Nc4nc(-c5c[nH]c6ncc(F)cc56)ncc4F)C3)c2)cc1` [Compound A73], less than 4.00.
The molecule `CCOCCOCc1cccc(-c2ccnc(C(=O)N[C@H]3CCC[C@@H](Nc4nc(-c5c[nH]c6ncc(F)cc56)ncc4F)C3)c2)c1` [Compound A90] had a negative-log EC50 (pEC50) of 4.00 to 4.30.
`O=C(NCc1ccccc1)OCc1ccnc(C(=O)N[C@@H]2CCC[C@H](Nc3nc(-c4c[nH]c5ncc(F)cc45)ncc3F)C2)c1` [Compound A91] showed a pEC50 of less than 4.00.

The values are drawn from patent US12357631B2 (priority 2018, dated 2025).
